# Data reported in ChEMBL document CHEMBL4028822, “Identification and structure activity relationship of novel flavone derivatives that inhibit the production of nitric oxide and PGE2 in LPS-induced RAW 264.7 cells” (Bioorg Med Chem Lett, 2017).
# Experiments:
# RAW264.7 [1] = assay: Antiinflammatory activity in mouse RAW264.7 cells assessed as inhibition of LPS-stimulated NO production at 20 uM by ELISA relative to control; format: functional
# RAW264.7 [2] = assay: Antiinflammatory activity in mouse RAW264.7 cells assessed as inhibition of LPS-stimulated PGE2 production by ELISA; format: functional, cell-based
# [3] = Cytotoxicity against LPS-stimulated mouse RAW264.7 cells assessed as cell viability at 20 uM by MTT assay (reference value: 100.01 +/- 0.05 %); format: cell-based; conditions: LPS-stimulated RAW264.7 cells, read-out: Activity
# RAW264.7 [4] = assay: Antiinflammatory activity in mouse RAW264.7 cells assessed as inhibition of LPS-stimulated NO production by ELISA; format: functional, cell-based
# RAW264.7 [5] = assay: Cytotoxicity against mouse RAW264.7 cells by MTT assay; format: cell-based
# RAW264.7 [6] = assay: Antiinflammatory activity in mouse RAW264.7 cells assessed as inhibition of LPS-stimulated NO production at 5 uM by ELISA relative to control; format: functional
# [7] = Cytotoxicity against LPS-stimulated mouse RAW264.7 cells assessed as cell viability at 5 uM by MTT assay (reference value: 100.01 +/- 0.05 %); format: cell-based; conditions: LPS-stimulated RAW264.7 cells, read-out: Activity
# RAW264.7 [8] = assay: Antiinflammatory activity in mouse RAW264.7 cells assessed as inhibition of LPS-stimulated NO production at 10 uM by ELISA relative to control; format: functional
# [9] = Cytotoxicity against LPS-stimulated mouse RAW264.7 cells assessed as cell viability at 10 uM by MTT assay (reference value: 100.01 +/- 0.05 %); format: cell-based; conditions: LPS-stimulated RAW264.7 cells, read-out: Activity
Compound,inhibition at 20 µM (RAW264.7 [1]) [%],IC50 (RAW264.7 [2]) [µM],viability at 20 µM [3] [%],also measured
COc1cc(OC)c2c(=O)cc(-c3ccccc3)oc2c1 [CHRYSIN DIMETHYL ETHER],31.5,7.43,134,IC50 (RAW264.7 [4]): 33.2 µM; IC50 (RAW264.7 [5]): 65.6 µM
COc1cc(OC)c2c(=O)cc(-c3ccc(O)c(O)c3)oc2c1,,14,,IC50 (RAW264.7 [4]): 34.8 µM; IC50 (RAW264.7 [5]): > 200 µM
O=c1cc(-c2cccc(O)c2)oc2ccccc12,17.7,,97,
O=c1cc(-c2ccccc2)oc2cc3c(cc12)OCO3,20.9,,119,
O=c1cc(-c2ccc(O)cc2)oc2ccccc12,37.5,3.77,96.1,IC50 (RAW264.7 [4]): 48.3 µM; IC50 (RAW264.7 [5]): 145 µM
CC(C)(C)C(=O)Oc1ccc2c(=O)cc(-c3ccccc3)oc2c1,28.6,,102,
O=c1cc(-c2ccccc2)oc2ccc(Cl)cc12 [6-CHLOROFLAVONE],26.1,,91.4,
COc1cc(OC)c2c(=O)cc(-c3ccc(OC)c(OC)c3)oc2c1 [TETRAMETHYLLUTEOLIN],37.6,3.13,109,IC50 (RAW264.7 [4]): 32.5 µM; IC50 (RAW264.7 [5]): 73.9 µM
CC(C)Cc1ccc(C(C)C(=O)O)cc1 (centres undefined) [IBUPROFEN],,0.39,,IC50 (RAW264.7 [4]): 1480 µM; IC50 (RAW264.7 [5]): 3310 µM
O=c1cc(-c2ccccc2)oc2ccc([N+](=O)[O-])cc12,11.9,,90.8,
O=c1cc(-c2ccc(Cl)cc2)oc2ccccc12,5.07,,85.8,
COc1ccc2c(=O)cc(-c3ccccc3)oc2c1 [7-METHOXYFLAVONE],17.7,,133,
COc1ccc(-c2cc(=O)c3ccccc3o2)c(OC)c1,20.9,,107,
O=c1cc(-c2ccccc2)oc2ccccc12 [FLAVONE],16.3,,95.4,
CC(C)(C)c1ccc(-c2cc(=O)c3ccccc3o2)cc1,19.5,,99.1,
"COc1ccc(-c2cc(=O)c3ccccc3o2)cc1OC [3',4'-DIMETHOXYFLAVONE]",33.3,6.46,117,IC50 (RAW264.7 [4]): 34.5 µM; IC50 (RAW264.7 [5]): 39.7 µM
O=c1cc(-c2ccc(-c3cccc4ccccc34)cc2)oc2ccccc12,11.6,,99.8,
Cc1ccc2oc(-c3ccccc3)cc(=O)c2c1 [6-METHYLFLAVONE],17.4,,116,
COc1ccc(-c2cc(=O)c3c(OC)cc(OC)cc3o2)cc1 [TRIMETHYLAPIGENIN],27.2,,103,
O=c1cc(-c2ccc(-c3ccccc3)cc2)oc2ccccc12,4.45,,92.3,
O=c1cc(-c2ccccc2)oc2ccc(F)cc12,20.4,,75.2,
O=c1cc(-c2ccc(O)c(O)c2)oc2cc(O)cc(O)c12 [LUTEOLIN],,2.87,,IC50 (RAW264.7 [4]): 5.06 µM; IC50 (RAW264.7 [5]): 18.9 µM; inhibition at 5 µM (RAW264.7 [6]): 19.5%; viability at 5 µM [7]: 98%
COc1ccc2oc(-c3ccccc3)cc(=O)c2c1 [6-METHOXYFLAVONE],22.2,,116,
COc1cccc(-c2cc(=O)c3ccccc3o2)c1,15.7,,102,
O=c1cc(-c2ccc(O)c(O)c2)oc2ccccc12,,0.99,,inhibition at 10 µM (RAW264.7 [8]): 64.3%; IC50 (RAW264.7 [4]): 6.29 µM; IC50 (RAW264.7 [5]): 45.1 µM; viability at 10 µM [9]: 93.6%
O=c1cc(-c2ccc(C(F)(F)F)cc2)oc2ccccc12,10.7,,87.9,
O=c1cc(-c2ccc(F)cc2)oc2ccccc12,21.2,,92.4,
C[Si](C)(C)c1ccc(-c2cc(=O)c3ccccc3o2)cc1,18,,95,
CS(=O)(=O)Nc1ccc([N+](=O)[O-])cc1OC1CCCCC1 [NS-398],,6.74,,
COc1ccc(-c2cc(=O)c3ccccc3o2)cc1 [4'-METHOXYFLAVONE],8.76,,111,
